The target in assay [1] is T1, CD81-LEL (Homo sapiens, UniProt P60033).
T1 construct: A recombinant form of the CD81-LEL protein with a GST tag; gift of Dr. Shoshana Levy, Stanford University
T1 sequence (P60033 113-201 limits assumed): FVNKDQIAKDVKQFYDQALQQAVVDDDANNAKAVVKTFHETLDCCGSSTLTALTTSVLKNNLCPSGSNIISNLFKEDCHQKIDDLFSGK
Kind of assay: Surface plasmon resonance binding of ligands to immobilized CD81-LEL. To be noted: for Binding (change in response units) / Dissociation 1 (change in response units) / Dissociation 2 (change in response units): SPR; for Binding (change in response units): 3 min association; for Dissociation 1 (change in response units) / Dissociation 2 (change in response units): dissociation interval. The protocol:
SPR analysis was performed using a Biacore T200 workstation (GE Healthcare, NJ, USA). A recombinant form of the CD81-LEL protein with a GST tag (generously provided by Dr. Shoshana Levy, Stanford University) was used to confirm, using an established experimental technique, the binding of several ligands to the protein. Briefly, 10 μM CD81-LEL-GST diluted into 10 mM Na-Acetate buffer pH 4.5 was immobilized for 15 min at a flow speed of 5 μl/min onto a CM5 sensor chip using amine-coupling (EDC-NHS), Approximately 20,000 RU of protein were immobilized on the chip. The ligands were prepared as 600 μM solutions in PBS-0.05% Tween-80 (the running buffer) and they were introduced to the protein using a pre-programmed 3 minute association and 1 minute dissociation interval.
SPR analysis was performed using a Biacore T100 workstation (GE Healthcare, NJ, USA). […] Approximately 20,000 RU of protein were immobilized on the chip. The ligands were prepared as 200 uM solutions in PBS-1% DMSO (the running buffer) and they were introduced to the protein using a pre-programmed 3 min association and 1 min dissociation interval.

For assay [2], the target named is T2, native CD81 on Raji cells (Homo sapiens, UniProt P60033).
T2 construct: endogenous in cells; host or cells: Raji cells (human B cell line)
T2 sequence (P60033 1-236): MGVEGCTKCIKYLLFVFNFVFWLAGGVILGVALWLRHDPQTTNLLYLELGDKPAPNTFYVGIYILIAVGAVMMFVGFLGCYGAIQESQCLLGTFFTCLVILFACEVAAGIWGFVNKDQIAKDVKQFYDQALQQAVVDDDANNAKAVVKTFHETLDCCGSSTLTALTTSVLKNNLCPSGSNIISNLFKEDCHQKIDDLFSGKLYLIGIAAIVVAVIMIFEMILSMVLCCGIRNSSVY
Kind of assay: Antibody neutralizing assay: inhibition of JS-81 anti-CD81 antibody binding on Raji cells (FACS). The class given is cell-based. To be noted: for inhibition at 50 µM: 50 μM ligand; for inhibition at 50 µM / inhibition at 100 µM / inhibition at 400 µM: Raji cells, read-out: Inhibition of JS-81 Binding (%); for inhibition at 100 µM: 100 μM ligand; for inhibition at 400 µM: 400 μM ligand. The protocol: For antibody neutralization assay Raji cells were used, a human B cell line that expressed high amounts of CD81 on the surface (data not shown), Cells were grown in RPMI medium (10% FCS, 1% penicillin/streptomycin, 1% L-glutamine, 1% non-essential amino acids, 1% sodium pyruvate, pH 7.4, at 37° C. with 5% CO2). 2×10^5 cells were incubated with or without different concentrations (50 μM, 100 μM, 400 μM and 1 mM) of indicated inhibitor for 20 min at room temperature, subsequently 1 ul (16 ng/μl) of FITC-labeled anti CD81 antibody (BD Pharmingen, 551108) was added to the cells and incubated for 20 min (antibody titration was performed to obtain a working dilution range, data not shown). Cells were washed and analyzed by FACS (BD FACSCalibur, software: Cell Quest Pro). Mean Fluorescence Intensity MFI was calculated using Flowjo software (TreesStar, www.flowjo.com).

The test system of assay [3] is Plasmodium falciparum. In words: Sporozoite invasion assay, P. falciparum in HepG2-CD81 cells. The format is cell-based. The conditions noted are these: for Percent Infection: HepG2-CD81, Plasmodium falciparum, 400 uM compound. The protocol:
(§1) Anopheles stephensi mosquitoes were fed on mice infected with Plasmodium yoelii 17XNL parasites. On day 14 post bloodmeal, salivary glands were harvested, homogenized, sporozoite number was determined using a hemocytometer and the indicated number of sporozoites was added to cell monolayers, Plasmodium falciparum sporozoites were generated by membrane feeding An. stephensi mosquitoes using gametocyte cultures generated in vitro.
(§2) HepG2-CD81 (14) cells were maintained in DMEM supplemented with 10% fetal calf serum and 1 mM glutamine (DMEM/FCS), mAb 2E6 was used for development assays and is directed against Plasmodium Hsp 70 (15) and mAb 2A10 is directed against the repeat region of P. falciparum CSP and was used for invasion assays.
(§3) 5×10^5 HepG2-CD81 cells were plated on collagen coated Lab-Tek wells and allowed to adhere overnight. The following day, cells were preincubated with 400 uM of compound for 30 minutes at 37° C. Controls were pre-incubated with DMSO at the same concentration in which it was found in the compound solutions. 10^5 sporozoites were added to each well and in the case of P. falciparum, incubated for 1.5 hours and scored for invasion whereas in the case of P. yoelii, incubated for 44 hours and scored for exoerythrocytic stages.

Assay [4] relates to Plasmodium yoelii. In words: Sporozoite development assay, P. yoelii in HepG2-CD81 cells. The format is cell-based. To be noted: for Percent Infection: HepG2-CD81, Plasmodium yoelii, 400 uM compound. The protocol:
as §1, §2, §3

Assay [5] has as its system Plasmodium yoelii. In words: Sporozoite infection assay, P. yoelii in Hepa1-6 cells. The class given is cell-based. To be noted: for effect on infection (in words): Hepa1-6 cells; for Percent Infection: Hepa1-6 Cells, Plasmodium yoelii.
For assay [6], the system named is Plasmodium berghei. Kind of assay: Sporozoite infection assay, P. berghei in Hepa1-6 cells. The format is cell-based. To be noted: for effect on infection (in words): Hepa1-6 cells; for Percent Infection: Hepa1-6 Cells, Plasmodium berghei.
Assay [7] has as its system Plasmodium berghei. Kind of assay: Sporozoite infection assay, P. berghei in HepG2 cells. The format is cell-based.

The structures appear in SMILES notation. “Also recorded” adds a separate entry of the source.

Broadly, the inhibition is the percentage by which the read-out fell short of the control. Take `O=C(O)/C(=C\c1ccccc1)c1ccccc1` [Ligand 40614, 2,3-diphenylprop-2-enoate]: in assay [1], the “Binding (change in response units)” value came to 52.5 response units, the “Dissociation 1 (change in response units)” value is 50.8 response units and the “Dissociation 2 (change in response units)” value was 43 response units. In assay [2], the inhibition at 50 µM amounted to 0%, the inhibition at 100 µM was 8% and the inhibition at 400 µM was determined as 26%. The “effect on infection (in words)” value in assay [3] (P. falciparum) is “wasn't found to enhance infection”. Further, in assay [4] (P. yoelii, HepG2-CD81), the “effect on infection (in words)” value was “enhance the infection”. Also, the “effect on infection (in words)” value in assay [5] (P. yoelii) was “enhancing development”. In addition, the “effect on infection (in words)” value in assay [6] (P. berghei) is “enhancing development”. In addition, the “effect on infection (in words)” value in assay [7] is on record as “enhancing development”.

Turning to `COc1cc(-c2ccc(Nc3ccccc3C(=O)O)c(OC)c2)ccc1Nc1ccccc1C(=O)O` [Ligand 73735, 2-[4-[4-(2-carboxylatoanilino)-3-methoxyphenyl]-2-methoxyanilino]benzoate], the “binding to CD81 by SPR (in words)” value in assay [1] is listed as “bind to CD81-LEL”. In assay [2], the inhibition at 50 µM is 0%. Besides, the “inhibition of anti-CD81 binding (in words)” value in assay [2] (100 uM and 400 uM) is “inhibit anti-CD81 binding to CD81-LEL in a dose dependent manner”. Further, the inhibition at 100 µM in assay [2] was 0%. The inhibition at 400 µM in assay [2] amounted to 24%. Further, the “Percent Infection” value was determined as 3.2% in assay [3], 23% in assay [4], 38.3% in assay [5] and 17.7% in assay [6]. Moreover, the “effect on infection (in words)” value in assay [3] (P. falciparum) is on record as “inhibit the infection”; in assay [4] (P. yoelii, HepG2-CD81) it was “inhibit; also recorded: inhibitory effect”; in assay [6] (P. berghei), “Inhibition”. In addition, the “percentage of infection inhibition” value is 96.8% in assay [3] (P. falciparum, HepG2-CD81); 77% in assay [4] (P. yoelii, HepG2-CD81); 61.7% in assay [5] (P. yoelii, Hepa1-6); 82.3% in assay [6] (P. berghei, Hepa1-6).

With `Cc1cc(C)c(N)c(C(=O)O)c1` [Ligand 90444, 2-amino-3,5-dimethylbenzoate], the “Binding (change in response units)” value in assay [1] is reported as −1.7 response units. The “Dissociation 1 (change in response units)” value in assay [1] is 13.1 response units. In assay [1], the “Dissociation 2 (change in response units)” value worked out at 5.6 response units. Moreover, the inhibition at 50 µM in assay [2] came out at 0%. The inhibition at 100 µM in assay [2] worked out at 0%. Besides, the inhibition at 400 µM in assay [2] worked out at 24%. For the same molecule, the “Percent Infection” value in assay [3] came to 98.7%; in assay [4] it was 44.3%; in assay [5], 222%; in assay [6] it was 95.6%. The “effect on infection (in words)” value was “inhibit; also recorded: inhibitory effect” in assay [4] (P. yoelii, HepG2-CD81); “didn't inhibit” in assay [5] (P. yoelii); “didn't inhibit” in assay [6] (P. berghei).

(Values after patent US10548895B2, “Ligands that target Plasmodium sporozoite binding sites on CD81 and therapeutic methods using them” (American University In Cairo (AUC), priority 2014, dated 2020).)
